In brackets after ≈: the same amount, converted by molar mass.
Key:
Test in all cases: in vitro antibacterial evaluation, MIC by broth dilution
Assay type in all cases: cell-based
[1] = tested on: Enterococcus sp.; details: broth dilution, 18 hours at 35° C.
Experimental: (§1) Methods for in vitro Antibacterial Evaluation (Table 1)
(§2) The minimum inhibitory concentration (MIC), the lowest concentration of the antibiotic which inhibits growth of the test organism, is determined by the broth dilution method using Muller-Hinton II […] (Baltimore Biological Laboratories) following the recommendations of the National Committee for Clinical Laboratory Standards [Methods for dilution antimicrobial susceptibility tests for bacteria that grow aerobically, approved standard M7-A2, National Committee for Clinical Laboratory Standards, Villanova, Pa.].
(§3) An inoculum level of 5×10^5 CFU/mL, and a range of antibiotic concentrations (64-0.06 μg/mL) is used. […] The test organisms include a spectrum of Gram-positive bacteria comprised of Staphylococcus sp., Streptococcus sp. and Enterococcus sp. These organisms include recent clinical isolates that are resistant to methicillin, penicillin and/or vancomycin.

[2] = tested on: Staphylococcus sp.
Experimental: as §1, §2, §3

[3] = tested on: Escherichia coli; details: 18 hours at 35° C.
Experimental: as §2, §3

[4] = tested on: Streptococcus sp.; details: broth dilution, 18 hours at 35° C.
Experimental: as §1, §2, §3

[5] = Enterococcus faecalis (ATCC 29212)
[6] = Enterococcus faecalis (GC 2242)
[7] = Enterococcus faecalis (GC 4552)
[8] = broth dilution, 18 hours at 35° C.
[9] = broth dilution, 18 hours at 35° C.; strain GC 4537
[10] = broth dilution, 18 hours at 35° C.; strain GC 4538
[11] = broth dilution, 18 hours at 35° C.; strain GC 4547
[12] = strain ATCC 29213; broth dilution, 18 hours at 35° C.
[13] = strain GC 1131; broth dilution, 18 hours at 35° C.
[14] = strain GC 4535; broth dilution, 18 hours at 35° C.
[15] = strain GC 4536; broth dilution, 18 hours at 35° C.

CCCCCCC(=O)OCC1OC(N2C(=N)NCC2C(O)C2NC(=O)C(C(O)C3CNC(=N)N3)NC(=O)C(Cc3ccc(OC4OC(CO)C(OC5OC(CO)C(O)C(O)C5O)C(O)C4O)cc3)NC(=O)C(C(C)c3ccccc3)NC(=O)CNC(=O)C(CO)NC2=O)C(O)C(O)C1O (stereo not drawn) [Example 97, Cyclo[glycyl-β-methylphenylalanyl-O-(4-O-hexopyranosylhexolpyranosyl)tyrosyl-3-(2-iminoimidazolidin-4-yl)seryl-3-[3-(6-O-heptanoylhexopyranosyl)-2-iminoimidazolidin-4-yl]seryl-seryl]]
MIC Enterococcus faecalis (ATCC 29212) [1, 5]: >64 µg/mL
MIC Enterococcus faecalis (GC 2242) [1, 6]: >64 µg/mL
MIC Enterococcus faecalis (GC 4552) [1, 7]: >64 µg/mL
MIC Enterococcus faecalis (ATCC 29212) [1]: >64 µg/mL
MIC Enterococcus faecalis (GC 2242) [1]: >64 µg/mL
MIC Enterococcus faecalis (GC 4552) [1]: >64 µg/mL
MIC Coagulase Negative Staphylococcus (GC 4537) [2, 8]: >64 µg/mL
MIC Coagulase Negative Staphylococcus (GC 4538) [2, 8]: >64 µg/mL
MIC Coagulase Negative Staphylococcus (GC 4547) [2, 8]: >64 µg/mL
MIC Coagulase Negative Staphylococcus (GC 4537) [2, 9]: >64 µg/mL
MIC Coagulase Negative Staphylococcus (GC 4538) [2, 10]: >64 µg/mL
MIC Coagulase Negative Staphylococcus (GC 4547) [2, 11]: >64 µg/mL
MIC Staphylococcus aureus (ATCC 29213) [2, 12]: >64 µg/mL
MIC Staphylococcus aureus (GC 1131) [2, 13]: >64 µg/mL
MIC Staphylococcus aureus (GC 4535) [2, 14]: >64 µg/mL
MIC Staphylococcus aureus-SMITH (GC 4536) [2, 15]: >64 µg/mL
MIC Escherichia coli (GC 4559) [3]: >64 µg/mL
MIC Escherichia coli (GC 4560) [3]: 2 µg/mL (≈ 1.42 µM)

CC(c1ccccc1)C1NC(=O)CNC(=O)C(CO)NC(=O)C(C(O)C2CNC(=N)N2C2OC(CO)C(O)C(O)C2O)NC(=O)C(C(O)C2CNC(=N)N2)NC(=O)C(Cc2ccc(OC3OC(CO)C(OC4OC(COC(=O)Cc5ccccc5)C(O)C(O)C4O)C(O)C3O)cc2)NC1=O (centres unmarked) [Example 98c]
MIC Enterococcus faecalis (ATCC 29212) [1, 5]: 16 µg/mL (≈ 11.3 µM)
MIC Enterococcus faecalis (GC 2242) [1, 6]: 8 µg/mL (≈ 5.66 µM)
MIC Enterococcus faecalis (GC 4552) [1, 7]: 16 µg/mL (≈ 11.3 µM)
MIC Enterococcus faecalis (ATCC 29212) [1]: 16 µg/mL (≈ 11.3 µM)
MIC Enterococcus faecalis (GC 2242) [1]: 8 µg/mL (≈ 5.66 µM)
MIC Enterococcus faecalis (GC 4552) [1]: 16 µg/mL (≈ 11.3 µM)
MIC Coagulase Negative Staphylococcus (GC 4537) [2, 8]: 2 µg/mL (≈ 1.42 µM)
MIC Coagulase Negative Staphylococcus (GC 4538) [2, 8]: 1 µg/mL (≈ 0.708 µM)
MIC Coagulase Negative Staphylococcus (GC 4547) [2, 8]: 1 µg/mL (≈ 0.708 µM)
MIC Coagulase Negative Staphylococcus (GC 4537) [2, 9]: 2 µg/mL (≈ 1.42 µM)
MIC Coagulase Negative Staphylococcus (GC 4538) [2, 10]: 1 µg/mL (≈ 0.708 µM)
MIC Coagulase Negative Staphylococcus (GC 4547) [2, 11]: 1 µg/mL (≈ 0.708 µM)
MIC Staphylococcus aureus (ATCC 29213) [2, 12]: 2 µg/mL (≈ 1.42 µM)
MIC Staphylococcus aureus (GC 1131) [2, 13]: 2 µg/mL (≈ 1.42 µM)
MIC Staphylococcus aureus (GC 4535) [2, 14]: 4 µg/mL (≈ 2.83 µM)
MIC Staphylococcus aureus-SMITH (GC 4536) [2, 15]: 2 µg/mL (≈ 1.42 µM)
MIC Escherichia coli (GC 4559) [3]: 64 µg/mL (≈ 45.3 µM)
MIC Escherichia coli (GC 4560) [3]: 0.5 µg/mL (≈ 0.354 µM)

CC(c1ccccc1)C1NC(=O)CNC(=O)C(CO)NC(=O)C(C(O)C2CNC(=N)N2C2OC(CO)C(O)C(O)C2O)NC(=O)C(C(O)C2CNC(=N)N2)NC(=O)C(Cc2ccc(OC3OC(CO)C(OC4OC(CO)C(OCC=C(c5ccccc5)c5ccccc5)C(O)C4O)C(O)C3O)cc2)NC1=O (centres unmarked) [Example 241a]
MIC Enterococcus faecalis (GC 2242) [1]: 4 µg/mL (≈ 2.69 µM)
MIC Enterococcus faecalis (GC 2691) [1]: 2 µg/mL (≈ 1.34 µM)
MIC Enterococcus faecalis (GC 3059) [1]: 2 µg/mL (≈ 1.34 µM)
MIC Enterococcus faecalis (GC 4552) [1]: 4 µg/mL (≈ 2.69 µM)
MIC Enterococcus faecalis (ATCC 29212) ([1]; strain ATCC 29212): 4 µg/mL (≈ 2.69 µM)
MIC Enterococcus faecium (GC 2243) ([1]; strain GC 2243): 2 µg/mL (≈ 1.34 µM)
MIC Enterococcus faecalis (GC 4552) ([1]; strain GC 4552): 4 µg/mL (≈ 2.69 µM)
MIC Enterococcus faecalis (GC 4553) ([1]; strain GC 4553): 4 µg/mL (≈ 2.69 µM)
MIC Enterococcus faecalis (GC 4554) ([1]; strain GC 4554): 4 µg/mL (≈ 2.69 µM)
MIC Enterococcus faecium (GC 4556) ([1]; strain GC 4556): 2 µg/mL (≈ 1.34 µM)
MIC Enterococcus faecium (GC 4557) ([1]; strain GC 4557): 2 µg/mL (≈ 1.34 µM)
MIC Enterococcus avium (GC 4558) ([1]; strain GC 4558): 2 µg/mL (≈ 1.34 µM)
MIC Enterococcus faecalis (GC 6189) ([1]; strain GC 6189): 2 µg/mL (≈ 1.34 µM)
MIC Enterococcus faecalis (GC 2242) ([1]; inoculum 5×10^5 CFU/mL, strain GC 2242): 4 µg/mL (≈ 2.69 µM)
MIC Enterococcus faecalis (GC 2691) ([1]; inoculum 5×10^5 CFU/mL, strain GC 2691): 2 µg/mL (≈ 1.34 µM)
MIC Enterococcus faecalis (GC 3059) ([1]; inoculum 5×10^5 CFU/mL, strain GC 3059): 2 µg/mL (≈ 1.34 µM)
MIC Coagulase Negative Staphylococcus (GC 4547) [2, 8]: 4 µg/mL (≈ 2.69 µM)
MIC Coagulase Negative Staphylococcus (GC 4548) [2, 8]: 2 µg/mL (≈ 1.34 µM)
MIC Coagulase Negative Staphylococcus (GC 4549) [2, 8]: 1 µg/mL (≈ 0.672 µM)
MIC Coagulase Negative Staphylococcus (GC 4551) [2, 8]: 4 µg/mL (≈ 2.69 µM)
MIC Coagulase Negative Staphylococcus (GC 6257) [2, 8]: 1 µg/mL (≈ 0.672 µM)
MIC Staphylococcus aureus (ATCC 29213) [2, 8]: 2 µg/mL (≈ 1.34 µM)
MIC Staphylococcus aureus (GC 1131) [2, 8]: 2 µg/mL (≈ 1.34 µM)
MIC Staphylococcus aureus (GC 3051) [2, 8]: 2 µg/mL (≈ 1.34 µM)
MIC Staphylococcus aureus (GC 3053) [2, 8]: 2 µg/mL (≈ 1.34 µM)
MIC Staphylococcus aureus (GC 4541) [2, 8]: 2 µg/mL (≈ 1.34 µM)
MIC Staphylococcus aureus (GC 4542) [2, 8]: 2 µg/mL (≈ 1.34 µM)
MIC Staphylococcus aureus (GC 4544) [2, 8]: 4 µg/mL (≈ 2.69 µM)
MIC Staphylococcus aureus (GC 4545) [2, 8]: 2 µg/mL (≈ 1.34 µM)
MIC Staphylococcus aureus-SMITH (GC 4543) [2, 8]: 2 µg/mL (≈ 1.34 µM)
MIC Staphylococcus haemolyticus (GC 4546) [2, 8]: 2 µg/mL (≈ 1.34 µM)
MIC Staphylococcus aureus (ATCC 29213) ([2]; broth dilution, 18 hours at 35° C.; strain ATCC 29213): 2 µg/mL (≈ 1.34 µM)
MIC Staphylococcus aureus (GC 1131) ([2]; broth dilution, 18 hours at 35° C.; strain GC 1131): 2 µg/mL (≈ 1.34 µM)
MIC Staphylococcus aureus (GC 3051) ([2]; broth dilution, 18 hours at 35° C.; strain GC 3051): 2 µg/mL (≈ 1.34 µM)
MIC Staphylococcus aureus (GC 3053) ([2]; broth dilution, 18 hours at 35° C.; strain GC 3053): 2 µg/mL (≈ 1.34 µM)
MIC Staphylococcus aureus (GC 4541) ([2]; broth dilution, 18 hours at 35° C.; strain GC 4541): 2 µg/mL (≈ 1.34 µM)
MIC Staphylococcus aureus (GC 4542) ([2]; broth dilution, 18 hours at 35° C.; strain GC 4542): 2 µg/mL (≈ 1.34 µM)
MIC Staphylococcus aureus-SMITH (GC 4543) ([2]; broth dilution, 18 hours at 35° C.; strain GC 4543): 2 µg/mL (≈ 1.34 µM)
MIC Staphylococcus aureus (GC 4544) ([2]; broth dilution, 18 hours at 35° C.; strain GC 4544): 4 µg/mL (≈ 2.69 µM)
MIC Staphylococcus aureus (GC 4545) ([2]; broth dilution, 18 hours at 35° C.; strain GC 4545): 2 µg/mL (≈ 1.34 µM)
MIC Staphylococcus haemolyticus (GC 4546) ([2]; broth dilution, 18 hours at 35° C.; strain GC 4546): 2 µg/mL (≈ 1.34 µM)
MIC Coagulase Negative Staphylococcus (GC 4547) [2, 11]: 4 µg/mL (≈ 2.69 µM)
MIC Coagulase Negative Staphylococcus (GC 4548) ([2]; broth dilution, 18 hours at 35° C.; strain GC 4548): 2 µg/mL (≈ 1.34 µM)
MIC Coagulase Negative Staphylococcus (GC 4549) ([2]; broth dilution, 18 hours at 35° C.; strain GC 4549): 1 µg/mL (≈ 0.672 µM)
MIC Coagulase Negative Staphylococcus (GC 4551) ([2]; broth dilution, 18 hours at 35° C.; strain GC 4551): 4 µg/mL (≈ 2.69 µM)
MIC Coagulase Negative Staphylococcus (GC 6257) ([2]; broth dilution, 18 hours at 35° C.; strain GC 6257): 1 µg/mL (≈ 0.672 µM)
MIC Streptococcus agalactiae (GC 4564) [4]: <0.06 µg/mL
MIC Streptococcus pneumoniae (ATCC 6301) [4]: <0.06 µg/mL
MIC Streptococcus pneumoniae (GC 1894) [4]: <0.06 µg/mL
MIC Streptococcus pneumoniae (GC 4565) [4]: <0.06 µg/mL
MIC Streptococcus pyogenes (GC 4563) [4]: <0.06 µg/mL
MIC Streptococcus pneumoniae (ATCC 6301) ([4]; inoculum 5×10^5 CFU/mL, strain ATCC 6301): <0.06 µg/mL
MIC Streptococcus pneumoniae (GC 1894) ([4]; inoculum 5×10^5 CFU/mL, strain GC 1894): <0.06 µg/mL
MIC Streptococcus pyogenes (GC 4563) ([4]; inoculum 5×10^5 CFU/mL, strain GC 4563): <0.06 µg/mL
MIC Streptococcus agalactiae (GC 4564) ([4]; inoculum 5×10^5 CFU/mL, strain GC 4564): <0.06 µg/mL
MIC Streptococcus pneumoniae (GC 4565) ([4]; inoculum 5×10^5 CFU/mL, strain GC 4565): <0.06 µg/mL

— patent publication US6914045B2, “Glycopeptide antibiotics” (Wyeth Holdings Corporation, priority 2001, dated 2005)
